# In ChEMBL document CHEMBL1131827, “Ring E analogs of methyllycaconitine (MLA) as novel nicotinic antagonists” (Bioorg Med Chem Lett, 1999):
# Target: Chromaffin cell neuronal nicotinic acetylcholine receptor (Bos taurus) (UniProt Q8SPU6+Q07263+P54131)
# Test: Antagonist activity was determined by inhibition of neuronal nicotine acetylcholine receptor (nAChR)-stimulated catecholamine release in cultured bovine adrenal chromaffin cells
# Type: functional
# Design: concentration or dose not given beside the values
# Conditions: concentration not given here
# Chromaffin cell neuronal nicotinic acetylcholine receptor (Bos taurus), sequence (P54131 whole entry, looked up): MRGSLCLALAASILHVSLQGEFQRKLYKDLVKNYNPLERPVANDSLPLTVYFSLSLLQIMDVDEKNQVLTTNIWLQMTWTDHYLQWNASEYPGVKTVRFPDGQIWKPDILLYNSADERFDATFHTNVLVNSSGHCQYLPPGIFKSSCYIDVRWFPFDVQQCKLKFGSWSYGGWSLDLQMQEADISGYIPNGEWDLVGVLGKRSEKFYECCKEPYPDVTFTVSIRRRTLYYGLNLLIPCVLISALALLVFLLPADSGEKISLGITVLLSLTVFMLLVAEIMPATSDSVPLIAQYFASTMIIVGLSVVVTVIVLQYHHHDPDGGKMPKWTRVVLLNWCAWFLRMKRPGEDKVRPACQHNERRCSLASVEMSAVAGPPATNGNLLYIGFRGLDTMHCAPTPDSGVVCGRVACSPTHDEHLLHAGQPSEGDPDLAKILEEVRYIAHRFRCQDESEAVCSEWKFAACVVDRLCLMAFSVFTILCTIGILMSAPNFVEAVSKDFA
# Chromaffin cell neuronal nicotinic acetylcholine receptor (Bos taurus), sequence (Q07263 whole entry, looked up): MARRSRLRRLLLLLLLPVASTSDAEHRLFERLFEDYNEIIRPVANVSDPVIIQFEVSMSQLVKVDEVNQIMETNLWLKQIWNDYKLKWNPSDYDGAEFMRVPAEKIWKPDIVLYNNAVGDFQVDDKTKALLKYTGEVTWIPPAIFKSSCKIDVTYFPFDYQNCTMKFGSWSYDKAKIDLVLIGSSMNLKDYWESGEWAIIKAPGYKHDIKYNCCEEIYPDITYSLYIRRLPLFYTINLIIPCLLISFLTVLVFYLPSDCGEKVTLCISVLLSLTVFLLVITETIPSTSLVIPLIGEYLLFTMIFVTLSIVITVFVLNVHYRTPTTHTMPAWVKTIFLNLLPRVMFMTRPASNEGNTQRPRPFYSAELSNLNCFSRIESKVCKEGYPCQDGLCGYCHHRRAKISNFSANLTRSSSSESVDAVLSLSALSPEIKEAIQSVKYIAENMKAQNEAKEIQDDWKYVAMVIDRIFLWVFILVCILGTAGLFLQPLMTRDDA
# Chromaffin cell neuronal nicotinic acetylcholine receptor (Bos taurus), sequence (Q8SPU6 whole entry, looked up): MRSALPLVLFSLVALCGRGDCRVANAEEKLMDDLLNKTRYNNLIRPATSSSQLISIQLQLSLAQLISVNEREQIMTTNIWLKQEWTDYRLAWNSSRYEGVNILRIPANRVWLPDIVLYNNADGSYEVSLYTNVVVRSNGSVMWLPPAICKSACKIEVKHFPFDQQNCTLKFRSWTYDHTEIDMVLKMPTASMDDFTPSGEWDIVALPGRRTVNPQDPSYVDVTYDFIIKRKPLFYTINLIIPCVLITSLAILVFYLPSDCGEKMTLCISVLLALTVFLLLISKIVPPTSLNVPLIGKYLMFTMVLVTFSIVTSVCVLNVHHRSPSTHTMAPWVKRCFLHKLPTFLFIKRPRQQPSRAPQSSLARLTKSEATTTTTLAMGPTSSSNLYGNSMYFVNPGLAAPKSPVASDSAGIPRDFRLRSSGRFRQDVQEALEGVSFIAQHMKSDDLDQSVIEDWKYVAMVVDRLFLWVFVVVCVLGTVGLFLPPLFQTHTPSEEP
row,Structure (SMILES),inhibition [%]
1,CC1CC(=O)N(c2ccccc2C(=O)OCC2CCCN(CCCc3ccccc3)C2)C1=O (centres undefined),86.3
2,CCN1C[C@]2(COC(=O)c3ccccc3N3C(=O)C[C@H](C)C3=O)CC[C@H](OC)[C@@]34[C@@H]5C[C@H]6[C@H](OC)[C@@H]5[C@](O)(C[C@@H]6OC)[C@](O)([C@@H](OC)[C@H]23)[C@@H]14,95.2
3,CC1CC(=O)N(c2ccccc2C(=O)OCC2CCCN(C(C)C)C2)C1=O (centres undefined),56.5
4,CCN1CCCC(COC(=O)c2ccccc2N2C(=O)CC(C)C2=O)C1 (centres undefined),33.5
5,CC1CC(=O)N(c2ccccc2C(=O)OCC2CCCN(C)C2)C1=O (centres undefined),30.1
6,CCOCCN1CCCC(COC(=O)c2ccccc2N2C(=O)CC(C)C2=O)C1 (centres undefined),45.9
7,CC(C)N1CCCC(COC(=O)c2ccccc2N2C(=O)CCC2=O)C1 (centres undefined),36.4
8,CCCCN1CCCC(COC(=O)c2ccccc2N2C(=O)CCC2=O)C1 (centres undefined),38.4
9,CC1CC(=O)N(c2ccccc2C(=O)OCC2CCCN(CCc3ccccc3)C2)C1=O (centres undefined),37
